# In US10273487B2, “Transfection vector for pathogenic amoebae and uses thereof” (priority 2017, dated 2019):
# Where two headings read alike, the source gives them in different places.
# Columns and labels:
# N. fowleri [1] = assay: Preliminary experiments on natural resistance of N. fowleri to selection marker
# Source text: Five different selection markers were screened for their suitability to use in an N. fowleri transfection system. […] Hygromycin was used in subsequent studies as the selectable marker, partly due to its easy use in other eukaryotic transfection systems.
# N. fowleri [2] = assay: MTS viability assays in N. fowleri; parameters: IC50 Value / IC90 Value: unit not given beside the values; conditions: for IC50 Value / IC90 Value / IC95 Value: MTS viability assay, N. fowleri, Table 1, unit not given
compound,measurement,setting,value
neomycin,resistance of N. fowleri to the selection marker,N. fowleri [1],natural resistance
same,IC50 Value,N. fowleri [2],681.1
same,IC90 Value,N. fowleri [2],2385.3
same,IC95 Value,N. fowleri [2],3078.4
nourseothricin,IC50 Value,N. fowleri [2],26.5
same,IC90 Value,N. fowleri [2],165.4
same,IC95 Value,N. fowleri [2],218.7
COc1ccc(C[C@H](N)C(=O)N[C@H]2[C@@H](O)[C@H](n3cnc4c(N(C)C)ncnc43)O[C@@H]2CO)cc1 [puromycin],IC95 Value,N. fowleri [2],1.91
same,IC50,"N. fowleri [2]; Naegleria fowleri, read-out: IC50 Value",0.58 µg/mL
same,IC50,"N. fowleri [2]; Naegleria fowleri, read-out: IC50 values",0.6 µg/mL
same,IC90,"N. fowleri [2]; Naegleria fowleri, read-out: IC90 Value",1.49 µg/mL
bleomycin,IC50 Value,N. fowleri [2],0.49
same,IC90 Value,N. fowleri [2],1.62
same,IC95 Value,N. fowleri [2],2.10
